According to patent publication US20260216164A1, “INDOLE COMPOUND DECOMPOSING IKZF2, AND USE THEREOF” (KOREA RESEARCH INSTITUTE OF CHEMICAL TECHNOLOGY, priority 2023, published 2026):

Target: Helios (IKZF2) (Homo sapiens, UniProt Q96SW2+Q9UKS7)
Test: Screening of Helios protein degraders using Nano-Glo HiBiT cell line (HiBiT-IKZF2)
Format: cell-based
Conditions: for remaining activity at 10 µM: compound 10 μM, read-out: HiBiT-IKZF2 Residual amount of Helios (%) 10 μM; for remaining activity at 10 µM / remaining activity at 1 µM: 6 hours, HiBiT-Helios knock-in Jurkat cells; for remaining activity at 1 µM: compound 1 μM, read-out: HiBiT-IKZF2 Residual amount of Helios (%) 1 μM
Procedure: To observe intracellular degradation of Helios, the Nano-Glo HiBiT detection system (Promega) was employed. […] The cells expressing Helios fused with HiBiT were validated using the Nano-Glo HiBiT detection system (Promega) according to a predetermined protocol, isolated as single cells, and cultured in complete medium to establish a monoclonal cell line.
After 6 hours, the Nano-Glo HiBiT detection reagent was added to each well in an equal volume to the cell culture medium and incubated at room temperature for 10 minutes. Following incubation, the HiBiT luminescence signal was measured using a microplate reader (Perkin Elmer).

Chain of Helios (IKZF2) (Q9UKS7 whole entry): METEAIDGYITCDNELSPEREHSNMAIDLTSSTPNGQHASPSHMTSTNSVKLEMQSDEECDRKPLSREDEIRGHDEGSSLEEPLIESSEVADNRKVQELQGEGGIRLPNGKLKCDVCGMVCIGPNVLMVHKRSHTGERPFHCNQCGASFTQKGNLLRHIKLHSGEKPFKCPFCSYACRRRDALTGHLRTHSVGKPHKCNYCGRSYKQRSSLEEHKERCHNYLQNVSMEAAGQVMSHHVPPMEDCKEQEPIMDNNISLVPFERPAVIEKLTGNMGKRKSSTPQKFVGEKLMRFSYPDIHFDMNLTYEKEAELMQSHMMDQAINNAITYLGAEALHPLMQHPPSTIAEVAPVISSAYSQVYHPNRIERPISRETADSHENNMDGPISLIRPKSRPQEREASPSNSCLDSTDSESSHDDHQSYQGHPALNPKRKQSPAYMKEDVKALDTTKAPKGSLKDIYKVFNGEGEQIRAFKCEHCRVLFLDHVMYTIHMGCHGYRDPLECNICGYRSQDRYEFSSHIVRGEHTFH
Chain of Helios (IKZF2) (Q96SW2 whole entry): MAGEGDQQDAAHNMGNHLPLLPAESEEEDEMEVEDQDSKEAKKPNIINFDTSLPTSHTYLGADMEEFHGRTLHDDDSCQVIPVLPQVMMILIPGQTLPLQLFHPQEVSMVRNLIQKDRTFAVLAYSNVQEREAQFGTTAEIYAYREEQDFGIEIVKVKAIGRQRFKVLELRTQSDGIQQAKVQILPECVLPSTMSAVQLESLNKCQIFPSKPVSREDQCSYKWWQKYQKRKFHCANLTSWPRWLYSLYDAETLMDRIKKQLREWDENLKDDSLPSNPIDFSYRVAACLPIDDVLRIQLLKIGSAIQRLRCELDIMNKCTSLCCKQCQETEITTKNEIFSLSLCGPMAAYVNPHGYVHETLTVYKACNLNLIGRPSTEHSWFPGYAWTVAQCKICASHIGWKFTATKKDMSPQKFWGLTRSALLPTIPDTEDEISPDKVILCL
Chain of Helios (IKZF2) (Q16531 whole entry partner): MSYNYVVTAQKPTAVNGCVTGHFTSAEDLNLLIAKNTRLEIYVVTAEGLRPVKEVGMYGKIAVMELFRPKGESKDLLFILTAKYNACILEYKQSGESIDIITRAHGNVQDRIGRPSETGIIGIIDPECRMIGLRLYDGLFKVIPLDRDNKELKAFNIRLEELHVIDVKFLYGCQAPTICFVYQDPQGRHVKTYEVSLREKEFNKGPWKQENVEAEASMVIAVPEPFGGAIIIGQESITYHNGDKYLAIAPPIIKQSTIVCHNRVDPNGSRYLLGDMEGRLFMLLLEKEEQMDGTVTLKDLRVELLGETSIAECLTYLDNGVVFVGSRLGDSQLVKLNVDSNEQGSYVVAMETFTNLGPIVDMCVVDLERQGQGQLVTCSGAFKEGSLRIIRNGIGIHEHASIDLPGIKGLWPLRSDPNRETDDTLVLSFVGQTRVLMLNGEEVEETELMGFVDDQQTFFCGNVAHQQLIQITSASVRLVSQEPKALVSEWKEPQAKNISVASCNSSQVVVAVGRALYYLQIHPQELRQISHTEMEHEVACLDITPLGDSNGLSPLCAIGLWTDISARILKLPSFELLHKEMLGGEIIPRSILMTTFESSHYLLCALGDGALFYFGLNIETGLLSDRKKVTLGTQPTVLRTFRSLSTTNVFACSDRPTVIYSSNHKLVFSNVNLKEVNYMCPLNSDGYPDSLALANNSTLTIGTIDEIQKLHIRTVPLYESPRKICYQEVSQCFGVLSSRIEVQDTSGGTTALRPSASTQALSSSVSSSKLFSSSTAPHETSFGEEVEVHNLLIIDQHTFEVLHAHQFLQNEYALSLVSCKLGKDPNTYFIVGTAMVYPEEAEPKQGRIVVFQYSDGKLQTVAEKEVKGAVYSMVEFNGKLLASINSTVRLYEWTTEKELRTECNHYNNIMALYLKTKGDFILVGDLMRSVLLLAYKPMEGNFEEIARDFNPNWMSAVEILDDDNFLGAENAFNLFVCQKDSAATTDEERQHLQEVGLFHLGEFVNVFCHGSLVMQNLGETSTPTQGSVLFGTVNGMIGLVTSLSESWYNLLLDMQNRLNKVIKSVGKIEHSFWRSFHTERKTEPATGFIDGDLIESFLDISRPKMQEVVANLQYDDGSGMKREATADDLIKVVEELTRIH

Structure (SMILES): Cc1c(C(=O)N2CCC(c3ccc4c(c3)CN(C3CCC(=O)NC3=O)C4=O)CC2)[nH]c2cc(C(C)(C)C)ccc12 (centres unmarked) [Compound 56, 3-(5-(1-(6-(tert-butyl)-3-methyl-1H-indole-2-carbonyl)piperidin-4-yl)-1-oxoinsoindolin-2-yl)piperidine-2,6-dione]
- remaining activity at 10 µM: 31.3%

Structure (SMILES): Cc1c(C(=O)N2CCC(c3ccc4c(c3)CN(C3CCC(=O)NC3=O)C4=O)CC2)[nH]c2ccc(Br)cc12 (centres unmarked) [Compound 33, 3-(5-(1-(5-bromo-3-methyl-1H-indole-2-carbonyl)piperidin-4-yl)-1-oxoinsoindolin-2-yl)piperidine-2,6-dione]
- remaining activity at 1 µM: 71.3%
- remaining activity at 10 µM: 64.4%

Structure (SMILES): O=C1CCC(N2Cc3cc(C4CCN(C(=O)c5[nH]c6ccccc6c5Cl)CC4)ccc3C2=O)C(=O)N1 (centres unmarked) [Compound 22, 3-(5-(1-(3-chloro-1H-indole-2-carbonyl)piperidin-4-yl)-1-oxoinsoindolin-2-yl)piperidine-2,6-dione]
- remaining activity at 1 µM: 64.5%
- remaining activity at 10 µM: 67%

Structure (SMILES): O=C1CCC(N2Cc3cc(C4CCN(C(=O)c5[nH]c6ccccc6c5F)CC4)ccc3C2=O)C(=O)N1 (centres unmarked) [Compound 37, 3-(5-(1-(3-fluoro-1H-indole-2-carbonyl)piperidin-4-yl)-1-oxoinsoindolin-2-yl)piperidine-2,6-dione]
- remaining activity at 1 µM: 99.6%
- remaining activity at 10 µM: 77.5%

Structure (SMILES): O=C1CCC(N2Cc3cc(C4CCN(C(=O)c5[nH]c6ccccc6c5CN5CCOCC5)CC4)ccc3C2=O)C(=O)N1 (centres unmarked) [Compound 34, 3-(5-(1-(3-(morpholinomethyl)-1H-indole-2-carbonyl)piperidin-4-yl)-1-oxoinsoindolin-2-yl)piperidine-2,6-dione]
- remaining activity at 1 µM: 66.5%
- remaining activity at 10 µM: 43.5%

Structure (SMILES): O=C1CCC(N2Cc3cc(C4CCN(C(=O)c5[nH]c6ccccc6c5Br)CC4)ccc3C2=O)C(=O)N1 (centres unmarked) [Compound 36, 3-(5-(1-(3-bromo-1H-indole-2-carbonyl)piperidin-4-yl)-1-oxoinsoindolin-2-yl)piperidine-2,6-dione]
- remaining activity at 1 µM: 50.9%
- remaining activity at 10 µM: 40.6%

Structure (SMILES): O=C1CCC(N2Cc3cc(C4CCN(C(=O)c5cc6ccc(F)cc6[nH]5)CC4)ccc3C2=O)C(=O)N1 (centres unmarked) [Compound 7, 3-(5-(1-(6-fluoro-1H-indole-2-carbonyl)piperidin-4-yl)-1-oxoinsoindolin-2-yl)piperidine-2,6-dione]
- remaining activity at 1 µM: 93.3%
- remaining activity at 10 µM: 98.6%

Structure (SMILES): Cc1c(C(=O)N2CCC(=Cc3ccc4c(c3)CN(C3CCC(=O)NC3=O)C4=O)CC2)[nH]c2ccccc12 (centres unmarked) [Compound 27, 3-(5-((1-(3-methyl-1H-indole-2-carbonyl)piperidin-4-ylidene)methyl)-1-oxoinsoindolin-2-yl)piperidine-2,6-dione]
- remaining activity at 1 µM: 96.4%
- remaining activity at 10 µM: 91.7%

Structure (SMILES): Cc1c(C(=O)N2CCC(c3ccc4c(c3)CN(C3CCC(=O)NC3=O)C4=O)CC2)[nH]c2cc(F)ccc12 (centres unmarked) [Compound 54, 3-(5-(1-(6-fluoro-3-methyl-1H-indole-2-carbonyl)piperidin-4-yl)-1-oxoinsoindolin-2-yl)piperidine-2,6-dione]
- remaining activity at 10 µM: 26.8%

Structure (SMILES): Cc1c(C(=O)N2CCC(c3ccc4c(c3)CN(C3CCC(=O)NC3=O)C4=O)CC2)[nH]c2cc(CN3CCNCC3)ccc12 (centres unmarked) [Compound 106, 3-(5-(1-(3-methyl-6-(piperazin-1-ylmethyl)-1H-indole-2-carbonyl)piperidin-4-yl)-1-oxoinsoindolin-2-yl)piperidine-2,6-dione dichloride]
- remaining activity at 1 µM: 42.8%
- remaining activity at 10 µM: 33.6%

Structure (SMILES): Cc1c(C(=O)N2CC=C(c3ccc4c(c3)CN(C3CCC(=O)NC3=O)C4=O)C2)[nH]c2cc(Cl)ccc12 (centres unmarked) [Compound 65, 3-(5-(1-(6-chloro-3-methyl-1H-indole-2-carbonyl)-2,5-dihydro-1H-pyrrol-3-yl)-1-oxoinsoindolin-2-yl)piperidine-2,6-dione]
- remaining activity at 10 µM: 109%

Structure (SMILES): Cc1c(C(=O)N2CC=C(c3ccc4c(c3)CN(C3CCC(=O)NC3=O)C4=O)CC2)[nH]c2cc(Cl)ccc12 (centres unmarked) [Compound 70, 3-(5-(1-(6-chloro-3-methyl-1H-indole-2-carbonyl)-1,2,3,6-tetrahydropyridin-4-yl)-1-oxoinsoindolin-2-yl)piperidine-2,6-dione]
- remaining activity at 1 µM: 94.8%
- remaining activity at 10 µM: 101%

Structure (SMILES): O=C1CCC(N2Cc3cc(C4CCN(C(=O)c5cc6c(Cl)cc(Cl)cc6[nH]5)CC4)ccc3C2=O)C(=O)N1 (centres unmarked) [Compound 6, 3-(5-(1-(4,6-dichloro-1H-indole-2-carbonyl)piperidin-4-yl)-1-oxoinsoindolin-2-yl)piperidine-2,6-dione]
- remaining activity at 1 µM: 107%
- remaining activity at 10 µM: 107%

Structure (SMILES): O=C1CCC(N2Cc3cc(C4CCN(C(=O)c5cc6ccc(O)cc6[nH]5)CC4)ccc3C2=O)C(=O)N1 (centres unmarked) [Compound 18, 3-(5-(1-(6-hydroxy-1H-indole-2-carbonyl)piperidin-4-yl)-1-oxoinsoindolin-2-yl)piperidine-2,6-dione]
- remaining activity at 1 µM: 53.6%
- remaining activity at 10 µM: 54.4%

Structure (SMILES): O=C1CCC(N2Cc3cc(C#CCC4CCN(C(=O)c5c[nH]c6ccccc56)CC4)ccc3C2=O)C(=O)N1 (centres unmarked) [Compound 23, 3-(5-(3-(1-(1H-indole-3-carbonyl)piperidin-4-yl)prop-1-yn-1-yl)-1-oxoinsoindolin-2-yl)piperidine-2,6-dione]
- remaining activity at 1 µM: 101%
- remaining activity at 10 µM: 99.6%

Structure (SMILES): CCc1c(C(=O)N2CCC(c3ccc4c(c3)CN(C3CCC(=O)NC3=O)C4=O)CC2)[nH]c2ccccc12 (centres unmarked) [Compound 29, 3-(5-(1-(3-ethyl-1H-indole-2-carbonyl)piperidin-4-yl)-1-oxoinsoindolin-2-yl)piperidine-2,6-dione]
- remaining activity at 1 µM: 73.6%
- remaining activity at 10 µM: 72.4%

Structure (SMILES): Cc1c(C(=O)N2CCC(c3ccc4c(c3)CN(C3CCC(=O)NC3=O)C4=O)CC2)[nH]c2cc(NS(C)(=O)=O)ccc12 (centres unmarked) [Compound 74, N-(2-(4-(2-(2,6-dioxopiperidin-3-yl)-1-oxoindolin-5-yl)piperidine-1-carbonyl)-3-methyl-1H-indol-6-yl) methanesulfonamide]
- remaining activity at 1 µM: 73.2%
- remaining activity at 10 µM: 75.8%

Structure (SMILES): Cc1c(C(=O)N2CCC(c3ccc4c(c3)CN(C3CCC(=O)NC3=O)C4=O)CC2)[nH]c2c(C)c(Cl)ccc12 (centres unmarked) [Compound 100, 3-(5-(1-(6-chloro-3,7-dimethyl-1H-indole-2-carbonyl)piperidin-4-yl)-1-oxoinsoindolin-2-yl)piperidine-2,6-dione]
- remaining activity at 1 µM: 16.8%
- remaining activity at 10 µM: 11.4%

Structure (SMILES): Cc1ccc2c(C)c(C(=O)N3CCC(c4ccc5c(c4)CN(C4CCC(=O)NC4=O)C5=O)CC3)[nH]c2c1 (centres unmarked) [Compound 69, 3-(5-(1-(3,6-dimethyl-1H-indole-2-carbonyl)piperidin-4-yl)-1-oxoinsoindolin-2-yl)piperidine-2,6-dione]
- remaining activity at 1 µM: 22%
- remaining activity at 10 µM: 41.8%

Structure (SMILES): COc1ccc2cc(C(=O)N3CCC(c4ccc5c(c4)CN(C4CCC(=O)NC4=O)C5=O)CC3)[nH]c2c1 (centres unmarked) [Compound 5, 3-(5-(1-(6-methoxy-1H-indole-2-carbonyl)piperidin-4-yl)-1-oxoinsoindolin-2-yl)piperidine-2,6-dione]
- remaining activity at 1 µM: 86.7%
- remaining activity at 10 µM: 88.2%

Structure (SMILES): CC(=O)Nc1ccc2c(C)c(C(=O)N3CCC(c4ccc5c(c4)CN(C4CCC(=O)NC4=O)C5=O)CC3)[nH]c2c1 (centres unmarked) [Compound 73, N-(2-(4-(2-(2,6-dioxopiperidin-3-yl)-1-oxoindolin-5-yl)piperidine-1-carbonyl)-3-methyl-1H-indol-6-yl)acetamide]
- remaining activity at 1 µM: 59.2%
- remaining activity at 10 µM: 27.8%

Structure (SMILES): O=C1CCC(N2Cc3cc(C4CCN(Cc5ccccc5)CC4)ccc3C2=O)C(=O)N1 (centres unmarked) [Comparative Substance 1 (DKY709), reference compound]
- remaining activity at 10 µM: 40%

Structure (SMILES): Cc1cccc2cc(C(=O)N3CCC(c4ccc5c(c4)CN(C4CCC(=O)NC4=O)C5=O)CC3)[nH]c12 (centres unmarked) [Compound 16, 3-(5-(1-(7-methyl-1H-indole-2-carbonyl)piperidin-4-yl)-1-oxoinsoindolin-2-yl)piperidine-2,6-dione]
- remaining activity at 1 µM: 78.5%
- remaining activity at 10 µM: 80.4%

Structure (SMILES): COc1c(C(=O)N2CCC(c3ccc4c(c3)CN(C3CCC(=O)NC3=O)C4=O)CC2)[nH]c2ccccc12 (centres unmarked) [Compound 30, 3-(5-(1-(3-methoxy-1H-indole-2-carbonyl)piperidin-4-yl)-1-oxoinsoindolin-2-yl)piperidine-2,6-dione]
- remaining activity at 1 µM: 86.7%
- remaining activity at 10 µM: 78.7%

Structure (SMILES): O=C1CCC(N2Cc3cc(C4CCN(C(=O)c5nc6ccc(Cl)cc6[nH]5)CC4)ccc3C2=O)C(=O)N1 (centres unmarked) [Comparative Substance 3, 3-(5-(1-(6-chloro-1H-benzo[d]imidazole-2-carbonyl)piperidin-4-yl)-1-oxoinsoindolin-2-yl)piperidine-2,6-dione, reference compound]
- IKZF2 degradation activity (in words, comment on Table 1) (as shown in Table 1): no IKZF2 degradation activity was observed
- remaining activity at 10 µM: 100%

Structure (SMILES): O=C1CCC(N2Cc3cc(C=C4CCN(C(=O)c5c[nH]c6ccccc56)CC4)ccc3C2=O)C(=O)N1 (centres unmarked) [Compound 25, 3-(5-((1-(1H-indole-3-carbonyl)piperidin-4-ylidene)methyl)-1-oxoinsoindolin-2-yl)piperidine-2,6-dione]
- remaining activity at 1 µM: 93.6%
- remaining activity at 10 µM: 87.5%

Structure (SMILES): O=C1CCC(N2Cc3cc(C4CCN(C(=O)c5cc6cccc(F)c6[nH]5)CC4)ccc3C2=O)C(=O)N1 (centres unmarked) [Compound 19, 3-(5-(1-(7-fluoro-1H-indole-2-carbonyl)piperidin-4-yl)-1-oxoinsoindolin-2-yl)piperidine-2,6-dione]
- remaining activity at 1 µM: 80.5%
- remaining activity at 10 µM: 82.7%
